How the values were obtained:
Type in all cases: in vivo, rat
[1] = test system: rats bearing Dunning (MATLyLu) prostate tumors; test: Biodistribution studies with Dunning prostate tumor; details: i.v., Dunning MAT-LyLu prostate tumor-bearing rats, mean ± SEM
Experimental: The three radiolabelled compounds illustrated in FIGS. 7A-7C, including the improved C-18 analogs 18-(p-iodophenyl)octadecyl phosphocholine (Compound XVI—FIG. 7B) and 1-O-[18-(p-iodophenyl)octadecyl]-1,3-propanediol-3-phosphocholine (Compound XIV—FIG. 7C) described in Examples 2 and 3, respectively, were prepared and administered to two sets of male Copenhagen rats (Harlan Sprague-Dawley, Indianapolis, Ind.). One group of normal animals was used as a control, and another group was inoculated with Dunning prostate tumor cells (1×10^6 MAT-LyLu cells) in 0.2 ml saline in the right hindlimb. The MAT-LyLu subline of the Dunning (R-3327) adenocarcinoma prostate tumor was provided by Dr. Ken Pienta of the Department of Urology at the University of Michigan, and is an accepted cell line representative of effect in humans. See, e.g., Pienta et al., “Inhibition of Spontaneous Metastasis in a Rat Prostrate Cancer Model by Oral Administration of Modified Citrus Pectin, J. Natl. Cancer Inst. 87:348-53 (1995).
The animals were maintained with free access to food and water until day 8-10. The radioiodinated phospholipid ether analog formulated in 2% Tween 20—sterile water (5-10 μCi, 0.3-0.4 ml, described above in Example 6) was administered intravenously into the tail vein of the tumor-bearing animals under metofane anesthesia. The animals were euthanized at selected time points after injection (n=3 per time point) and samples of blood, plasma and a variety of tissues including tumor and prostate are collected and analyzed for radioiodine content. Biodistribution values are calculated as the mean of the individual % administered dose per gram of tissue and % dose per organ values.

[2] = test system: Dunning R3327 prostate tumor-bearing animals; test: Gamma camera scintigraphy studies with Dunning R3327 prostate tumor; details: >40 μCi injected, 125I window, static fifteen-minute images
Experimental: Comparative in vivo scintigaphic studies were also conducted using the C-12 analog 12-(p-iodophenyl)dodecyl phosphocholine and the C-18 analogs 18-(p-iodophenyl)octadecyl phosphocholine (Compound XVI) and 1-O-[18-(p-iodophenyl)octadecyl]-1,3-propanediol-3-phosphocholine (Compound XIV) utilized in Example 7. The imaging studies were performed on Dunning R3327 prostate tumor-bearing animals injected with >40 μCi of the radioiodinated phospholipid ether formulations described above. The anesthetized animals were imaged at selected times after injection on a gamma camera set to the ^125I window and outfitted with a low energy collimator. Static fifteen-minute images were obtained for each animal at the specified time. The results are illustrated in FIGS. 8A-8C.

[3] = test system: rats bearing Walker-256 tumor; test: Biodistribution studies with Walker-256 carcinosarcoma; details: i.v., Walker-256 tumor-bearing rats, mean ± SEM
Experimental: The three radiolabelled compounds illustrated in FIG. 5, including the improved C-18 analog 18-(p-iodophenyl)octadecyl phosphocholine (Compound XVI) described in Example 2, were prepared and administered to two sets of female Sprague Dawley rats (Charles River, Portage, Mich.). One normal set was used as a control, and one set was inoculated with Walker-256 carcinosarcoma cells (5×10^6 cells) in 0.2 ml saline in the right hindlimb. The Walker carcinoma cell line was provided by Dr. James Varani of the Department of Pathology at the University of Michigan, and is an accepted cell line representative of effect in humans. See, e.g. Tayck et al., “Influence of the Walker 256 Carcinosarcoma on Muscle, Tumor, and Whole-Body Protein Synthesis and Growth Rate in the Cancer-Bearing Rat, Cancer Res. 46:5649-54 (1986).
The animals were used 6-8 days later when the tumor weight averaged 10 g. The radiolabelled compounds were dissolved in absolute ethanol (50-500 μl) and Tween-20 (0.1 ml/mg of compound) was added to the solution. Ethanol was removed by evaporation under a stream of nitrogen. Physiological saline or sterile water was added, to give a 2-3% Tween-20 solution which was subsequently mixed by vortex. The solubilized radiolabelled compounds (5-10 μCi, 0.3 ml) were administered intravenously via the tail vein to tumor bearing rats, and the animals were sacrificed by exsanguination while under ether anesthesia at the various time points. Blood samples were collected through cardiac puncture and selected tissues (liver, kidney, etc.) were removed, trimmed, blotted to remove excess blood and weighed. Large organs were thoroughly minced with scissors to obtain random representative tissue samples.
For the biodistribution experiments with 12-(p-iodophenyl)dodecyl phosphocholine, weighed tissue samples were counted with a well scintillation counter (85% counting efficiency). The concentration of radioactivity in each tissue was expressed as a percentage of administered dose per gram of tissue.
Tissue distribution was assessed at various times following administration of the radioiodinated chain length isomers. The results are expressed as the mean % administered dose per gram±SEM (% Dose/g±SEM).

Substance: 12-(p-iodophenyl)dodecyl phosphocholine [C-12 Analog]
- mean % administered dose per gram, Adrenal ([1]; 24 hr): 0.29 ± 0.01 % Dose/g
- mean % administered dose per gram, Adrenal ([1]; 48 hr): 0.23 ± 0.01 % Dose/g
- mean % administered dose per gram, Blood ([1]; 24 hr): 0.23 ± 0.02 % Dose/g
- mean % administered dose per gram, Blood ([1]; 48 hr): 0.22 ± 0.01 % Dose/g
- mean % administered dose per gram, Kidney ([1]; 24 hr): 4.45 ± 0.27 % Dose/g
- mean % administered dose per gram, Kidney ([1]; 48 hr): 3.38 ± 0.43 % Dose/g
- mean % administered dose per gram, Liver ([1]; 24 hr): 1.27 ± 0.02 % Dose/g
- mean % administered dose per gram, Liver ([1]; 48 hr): 1.05 ± 0.03 % Dose/g
- mean % administered dose per gram, Lung ([1]; 24 hr): 0.48 ± 0.03 % Dose/g
- mean % administered dose per gram, Lung ([1]; 48 hr): 0.33 ± 0.02 % Dose/g
- mean % administered dose per gram, Plasma ([1]; 24 hr): 0.32 ± 0.03 % Dose/g
- mean % administered dose per gram, Plasma ([1]; 48 hr): 0.32 ± 0.01 % Dose/g
- mean % administered dose per gram, Tumor ([1]; 24 hr): 0.37 ± 0.03 % Dose/g
- mean % administered dose per gram, Tumor ([1]; 48 hr): 0.30 ± 0.01 % Dose/g
- tumor localization in gamma camera scintigraphy images [2]: tumor was barely visible
- mean % administered dose per gram, Adrenal ([3]; 24 hr): 0.33 ± 0.01 % Dose/g
- mean % administered dose per gram, Adrenal ([3]; 48 hr): 0.29 ± 0.01 % Dose/g
- mean % administered dose per gram, Blood ([3]; Blood, 24 hr): 0.27 ± 0.04 % Dose/g
- mean % administered dose per gram, Blood ([3]; Blood, 48 hr): 0.27 ± 0.03 % Dose/g
- blood levels ([3]; Blood, 120 hours): 0.22±0.03 % Dose/g
- mean % administered dose per gram, Duodenum ([3]; 24 hr): 1.35 ± 0.13 % Dose/g
- mean % administered dose per gram, Duodenum ([3]; 48 hr): 0.77 ± 0.06 % Dose/g
- mean % administered dose per gram, Kidney ([3]; 24 hr): 4.10 ± 0.44 % Dose/g
- mean % administered dose per gram, Kidney ([3]; 48 hr): 3.44 ± 0.08 % Dose/g
- mean % administered dose per gram, Liver ([3]; 24 hr): 1.62 ± 0.17 % Dose/g
- mean % administered dose per gram, Liver ([3]; 48 hr): 1.37 ± 0.01 % Dose/g
- mean % administered dose per gram, Lung ([3]; 24 hr): 1.06 ± 0.04 % Dose/g
- mean % administered dose per gram, Lung ([3]; 48 hr): 0.53 ± 0.01 % Dose/g
- mean % administered dose per gram, Plasma ([3]; 24 hr): 0.39 ± 0.05 % Dose/g
- mean % administered dose per gram, Plasma ([3]; 48 hr): 0.39 ± 0.05 % Dose/g
- mean % administered dose per gram, Tumor ([3]; 24 hr): 2.99 ± 0.34 % Dose/g
- mean % administered dose per gram, Tumor ([3]; 48 hr): 1.84 ± 0.09 % Dose/g

Reference: patent US6417384B1, “Radioiodinated phospholipid ether analogs and methods of using the same” (The Regents of the University of Michigan, priority 1999, dated 2002)
